According to ChEMBL document CHEMBL4406853 (Eur J Med Chem, 2019):
Non-standard residues stand in square brackets, D forms with d. Residues, ends and D or L forms follow the SMILES beside them. ξ: configuration not given here. ξP = O=C(O)C1CCCN1

Legend:
[1] = biological target: T1, Mu-type opioid receptor (Homo sapiens, UniProt P35372); test: Inhibition of mu opioid receptor (unknown origin) expressed in HEK293 cells assessed as inhibition of forskolin-stimulated intracellular cAMP accumulation preincubated for 30 mins followed by forskolin-stimulation and measured after 60 mins; format: functional, cell-based
[2] = biological target: T1, Mu-type opioid receptor; test: Inhibition of mu opioid receptor (unknown origin) expressed in HEK293 cells assessed as inhibition of forskolin-stimulated […] preincubated for 30 mins followed by forskolin-stimulation and measured after 60 mins; format: cell-based
[3] = biological target: T2, Kappa-type opioid receptor (Homo sapiens, UniProt P41145); test: Inhibition of kappa opioid receptor (unknown origin) expressed in CHO cells by [35S]-GTPgammaS binding assay; format: functional, cell-based
[4] = organism: Homo sapiens; test: Selectivity ratio of Ki for mu opioid receptor (unknown origin) expressed in CHO cells to Ki for delta opioid receptor (unknown origin) expressed in CHO cells; format: cell-based
[5] = biological target: T2, Kappa-type opioid receptor; test: Partial agonist activity at kappa opioid receptor (unknown origin) expressed in CHO cells by [35S]-GTPgammaS binding assay; format: functional, cell-based
[6] = biological target: T2, Kappa-type opioid receptor; test: Partial agonist activity at kappa opioid receptor (unknown origin) expressed in CHO cells by [35S]-GTPgammaS binding assay relative to control; format: functional, cell-based
[7] = biological target: T1, Mu-type opioid receptor; test: Partial agonist activity at mu opioid receptor (unknown origin) expressed in CHO cells by [35S]-GTPgammaS binding assay; format: functional, cell-based
[8] = biological target: T2, Kappa-type opioid receptor; test: Agonist activity at kappa opioid receptor (unknown origin) assessed as reduction in beta arrestin recruitment; format: functional
[9] = biological target: T2, Kappa-type opioid receptor; test: Agonist activity at kappa opioid receptor (unknown origin) assessed as reduction in beta arrestin recruitment relative to control; format: functional
[10] = biological target: T3, Delta-type opioid receptor (Homo sapiens, UniProt P41143); test: Inhibition of delta opioid receptor (unknown origin) by radioligand binding assay
[11] = biological target: T3, Delta-type opioid receptor; test: Inhibition of delta opioid receptor (unknown origin) by MVD assay
[12] = biological target: T1, Mu-type opioid receptor; test: Inhibition of mu opioid receptor (unknown origin)
[13] = organism: Homo sapiens; test: Selectivity ratio of IC50 for mu opioid receptor (unknown origin) to IC50 for delta opioid receptor (unknown origin) by radioligand binding assay
[14] = organism: Homo sapiens; test: Selectivity ratio of IC50 for mu opioid receptor (unknown origin) to IC50 for delta opioid receptor (unknown origin) by MVD assay
[15] = biological target: T3, Delta-type opioid receptor; test: Inhibition of full length delta opioid receptor (unknown origin) assessed as inhibition of forskolin-stimulated intracellular cAMP accumulation; format: functional, cell-based
[16] = biological target: T3, Delta-type opioid receptor; test: Inhibition of full length delta opioid receptor (unknown origin) assessed as increase in beta arrestin 1 recruitment
[17] = biological target: T3, Delta-type opioid receptor; test: Inhibition of full length delta opioid receptor (unknown origin) assessed as increase in beta arrestin 2 recruitment
[18] = biological target: T1, Mu-type opioid receptor; test: Inhibition of mu-opioid receptor (unknown origin) by [35S]-GTPgammaS binding assay; format: functional
[19] = biological target: T2, Kappa-type opioid receptor; test: Inhibition of kappa-opioid receptor (unknown origin) by [35S]-GTPgammaS binding assay; format: functional
[20] = biological target: T2, Kappa-type opioid receptor; test: Binding affinity to kappa opioid receptor (unknown origin)
[21] = biological target: T2, Kappa-type opioid receptor; test: Inhibition of kappa opioid receptor (unknown origin) by [35S]-GTPgammaS binding assay; format: functional
[22] = tested on: Mus musculus; test: Antinociceptive activity in icv dosed mouse; format: functional
[23] = biological target: T1, Mu-type opioid receptor; test: Displacement of [3H]DAMGO from mu opioid receptor (unknown origin) expressed in HEK293 cells after 1 hr by liquid scintillation counting; format: cell-based
[24] = tested on: Mus musculus; test: Antinociceptive activity in icv dosed Kunming mouse; format: functional; details: central
[25] = tested on: Mus musculus; test: Antinociceptive activity in iv dosed Kunming mouse; format: functional
[26] = biological target: T4, Mu-type opioid receptor (Cavia porcellus, UniProt P97266); test: Inhibition of mu opioid receptor in guinea pig brain membranes; format: cell membranes
[27] = Inhibition of delta opioid receptor in guinea pig brain membranes; format: cell membranes, Cavia porcellus
[28] = biological target: T5, Kappa-type opioid receptor (Cavia porcellus, UniProt P41144); test: Inhibition of kappa opioid receptor in guinea pig brain membranes; format: cell membranes
[29] = biological target: T4, Mu-type opioid receptor; test: Agonist activity at mu opioid receptor in guinea pig brain membranes by [35S]-GTPgammaS binding assay; format: functional, cell membranes
[30] = Agonist activity at delta opioid receptor in guinea pig brain membranes by [35S]-GTPgammaS binding assay; format: cell membranes, Cavia porcellus
[31] = biological target: T5, Kappa-type opioid receptor; test: Agonist activity at kappa opioid receptor in guinea pig brain membranes by [35S]-GTPgammaS binding assay; format: functional, cell membranes
[32] = biological target: Mu-type opioid receptor (Cavia porcellus) (UniProt P97266); test: Agonist activity at mu opioid receptor in guinea pig brain membranes by [35S]-GTPgammaS binding assay relative to control; format: functional, cell membranes
[33] = organism: Cavia porcellus; test: Agonist activity at delta opioid receptor in guinea pig brain membranes by [35S]-GTPgammaS binding assay relative to control; format: cell membranes
[34] = biological target: Kappa-type opioid receptor (Cavia porcellus) (UniProt P41144); test: Agonist activity at kappa opioid receptor in guinea pig brain membranes by [35S]-GTPgammaS binding assay relative to control; format: functional, cell membranes
[35] = biological target: T1, Mu-type opioid receptor; test: Inhibition of mu opioid receptor (unknown origin) in presence of DAMGO by [35S]-GTPgammaS binding assay; format: functional
[36] = biological target: T3, Delta-type opioid receptor; test: Inhibition of delta opioid receptor (unknown origin) in presence of DAMGO by [35S]-GTPgammaS binding assay; format: functional
[37] = biological target: T1, Mu-type opioid receptor; test: Inhibition of mu opioid receptor (unknown origin) in presence of DPDPE by [35S]-GTPgammaS binding assay; format: functional
[38] = biological target: T3, Delta-type opioid receptor; test: Inhibition of delta opioid receptor (unknown origin) in presence of DPDPE by [35S]-GTPgammaS binding assay; format: functional
[39] = biological target: T2, Kappa-type opioid receptor; test: Inhibition of kappa opioid receptor (unknown origin) in presence of DAMGO by [35S]-GTPgammaS binding assay; format: functional
[40] = biological target: T2, Kappa-type opioid receptor; test: Inhibition of kappa opioid receptor (unknown origin) in presence of DPDPE by [35S]-GTPgammaS binding assay; format: functional
[41] = biological target: T3, Delta-type opioid receptor; test: Inhibition of delta opioid receptor (unknown origin) in presence of DAMGO by [35S]-GTPgammaS binding assay relative to control; format: functional
[42] = biological target: T1, Mu-type opioid receptor; test: Inhibition of mu opioid receptor (unknown origin) in presence of DPDPE by [35S]-GTPgammaS binding assay relative to control; format: functional
[43] = biological target: T3, Delta-type opioid receptor; test: Inhibition of delta opioid receptor (unknown origin) in presence of DPDPE by [35S]-GTPgammaS binding assay relative to control; format: functional
[44] = biological target: T2, Kappa-type opioid receptor; test: Inhibition of kappa opioid receptor (unknown origin) in presence of DAMGO by [35S]-GTPgammaS binding assay relative to control; format: functional
[45] = biological target: T2, Kappa-type opioid receptor; test: Inhibition of kappa opioid receptor (unknown origin) in presence of DPDPE by [35S]-GTPgammaS binding assay relative to control; format: functional

T3 sequence (P41143 whole entry): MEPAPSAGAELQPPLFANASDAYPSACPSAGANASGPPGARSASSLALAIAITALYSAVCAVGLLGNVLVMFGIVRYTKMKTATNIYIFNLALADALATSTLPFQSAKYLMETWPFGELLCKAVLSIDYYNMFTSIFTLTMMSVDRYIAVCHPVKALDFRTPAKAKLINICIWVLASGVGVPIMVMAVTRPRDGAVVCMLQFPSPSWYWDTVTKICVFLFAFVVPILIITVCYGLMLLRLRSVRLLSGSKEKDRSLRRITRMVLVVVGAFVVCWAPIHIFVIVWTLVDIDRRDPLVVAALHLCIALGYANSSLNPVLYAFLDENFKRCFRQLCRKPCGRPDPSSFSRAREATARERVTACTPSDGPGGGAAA
T1 sequence (P35372 whole entry): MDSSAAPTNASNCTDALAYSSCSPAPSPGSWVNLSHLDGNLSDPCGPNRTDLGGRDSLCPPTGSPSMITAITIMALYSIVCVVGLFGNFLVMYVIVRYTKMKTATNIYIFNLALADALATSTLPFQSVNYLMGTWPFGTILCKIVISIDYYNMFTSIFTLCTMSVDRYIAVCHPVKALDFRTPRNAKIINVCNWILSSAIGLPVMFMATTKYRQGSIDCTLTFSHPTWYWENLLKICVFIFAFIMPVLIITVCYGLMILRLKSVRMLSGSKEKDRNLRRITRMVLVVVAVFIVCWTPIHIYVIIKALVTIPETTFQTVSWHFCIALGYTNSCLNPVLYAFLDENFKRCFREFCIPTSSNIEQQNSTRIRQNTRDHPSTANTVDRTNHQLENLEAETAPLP
T2 sequence (P41145 whole entry): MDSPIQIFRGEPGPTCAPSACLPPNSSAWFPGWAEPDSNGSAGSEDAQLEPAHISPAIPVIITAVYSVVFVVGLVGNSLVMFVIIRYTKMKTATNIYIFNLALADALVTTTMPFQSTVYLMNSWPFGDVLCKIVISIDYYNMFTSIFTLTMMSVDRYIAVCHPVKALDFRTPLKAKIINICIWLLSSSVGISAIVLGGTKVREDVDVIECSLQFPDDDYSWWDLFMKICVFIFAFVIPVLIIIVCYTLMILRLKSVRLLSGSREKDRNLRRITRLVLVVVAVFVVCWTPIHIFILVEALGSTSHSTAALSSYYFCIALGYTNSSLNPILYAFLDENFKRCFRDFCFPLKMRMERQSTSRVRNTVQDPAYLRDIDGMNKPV
T4 sequence (P97266 whole entry): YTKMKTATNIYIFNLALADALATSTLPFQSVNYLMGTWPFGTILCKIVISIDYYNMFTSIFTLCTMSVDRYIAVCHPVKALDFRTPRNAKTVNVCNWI
T5 sequence (P41144 whole entry): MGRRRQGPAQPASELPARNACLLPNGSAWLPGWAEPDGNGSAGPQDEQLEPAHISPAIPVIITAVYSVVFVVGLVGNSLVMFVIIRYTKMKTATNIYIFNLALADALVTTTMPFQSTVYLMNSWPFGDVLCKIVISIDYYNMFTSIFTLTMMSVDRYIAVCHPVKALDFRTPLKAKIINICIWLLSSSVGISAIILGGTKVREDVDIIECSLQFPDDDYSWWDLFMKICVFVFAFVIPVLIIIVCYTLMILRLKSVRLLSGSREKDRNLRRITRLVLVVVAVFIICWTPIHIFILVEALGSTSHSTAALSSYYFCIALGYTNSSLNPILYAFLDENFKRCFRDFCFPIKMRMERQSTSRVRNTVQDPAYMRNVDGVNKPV
Sequence of Mu-type opioid receptor (Cavia porcellus) (P97266 whole entry): as the sequence (P97266 whole entry) above
Sequence of Kappa-type opioid receptor (Cavia porcellus) (P41144 whole entry): as the sequence (P41144 whole entry) above

CN(C)[C@H](CNC(=O)NCCc1ccsc1)Cc1ccc2ccccc2c1
EC50 [1]: 0.0524 to 0.243 µM
EC50 [2]: 0.0524 to 0.243 µM

CCC1CC2CC3c4[nH]c5ccc(O)cc5c4CCN(C2)C13 (stereo not given)
Ki [3]: 0.72 µM
Ratio Ki [4]: 2
EC50 [5]: 8.75 µM
Emax [6]: 72%
EC50 [7]: 16 µM
EC50 [8]: 0.11 µM
Emax [9]: 13%

CC(C)C[C@H](NC(=O)C1CCCN1C(=O)[C@@H](N)Cc1ccc(O)cc1)C(=O)N[C@@H](CC(=O)O)C(=O)N[C@@H](CC(C)C)C(=O)N[C@@H](Cc1ccccc1)C(=O)O (stereo not given in full) (H-Y[ξP]LDLF-OH)
IC50 [10]: 0.9 µM
IC50 [11]: 24.4 µM
IC50 [12]: > 2000 µM
Ratio IC50 [13]: 500
Ratio IC50 [14]: 500
IC50 [15]: 1.58 µM
EC50 [16]: 7.94 µM
EC50 [17]: 7.94 µM

CCC1(C)CC(CCNCc2ccccc2O)(c2ccccc2OC)CCO1 (stereo not given)
EC50 [18]: 1.1 µM
EC50 [19]: 3.4 µM

COC(=O)[C@@H]1C[C@H](OC(=O)CSC#N)C(=O)[C@H]2[C@@]1(C)CC[C@H]1C(=O)O[C@H](c3ccoc3)C[C@]21C [22-THIOCYANATOSALVINORIN A]
Kd [20]: 0.00059 µM

Oc1cccc(CCN(CCc2ccccc2)CC2CC2)c1
EC50 [21]: 0.0367 µM
ED50 [22]: 6.02 nmol

CC(C)C[C@H](NC(=O)[C@H](CC(=O)O)NC(=O)[C@H](CC(C)C)NC(=O)C1CCCN1C(=O)[C@@H](N)Cc1ccc(O)cc1)C(=O)O (stereo not given in full) (H-Y[ξP]LDL-OH)
IC50 [10]: 2 µM
IC50 [11]: 51 µM
IC50 [12]: 1090 µM
Ratio IC50 [13]: 500
Ratio IC50 [14]: 500
IC50 [15]: 6.31 µM
EC50 [16]: 79.4 µM
EC50 [17]: 79.4 µM

C[C@H](Cc1ccsc1)NC(=O)NC[C@H](Cc1ccc2ccccc2c1)N(C)C
EC50 [1]: 0.0524 to 0.0911 µM
EC50 [2]: 0.0524 to 0.0911 µM

C=C(C(N)=O)C(NC(=O)[C@H](Cc1ccccc1)NC(=O)[C@@H](C)N(C)C(=O)C(N)Cc1c(C)cc(O)cc1C)c1ccccc1 (stereo not given in full)
EC50 [23]: 1.77 to 5.15 pM
Ki [23]: 0.0109 to 0.0511 nM

C=C(C(N)=O)C(NC(=O)[C@H](Cc1ccccc1)NC(=O)[C@@H](C)N(C)C(=O)C(N)Cc1c(C)cc(O)cc1C)c1ccco1 (stereo not given in full)
EC50 [23]: 1.77 to 5.15 pM
Ki [23]: 0.0109 to 0.0511 nM
ED50 [24]: 0.0226 µmol/kg
ED50 [25]: 0.000489 µmol/kg

CC[C@@H]1CN2CCc3c([nH]c4cccc(OC)c34)[C@@H]2C[C@@H]1/C(=C\OC)C(=O)OC
Ki [26]: 0.013 µM
Ki [27]: 0.155 µM
Ki [28]: 0.123 µM
EC50 [29]: 0.23 µM
EC50 [30]: 0.23 µM
EC50 [31]: 0.23 µM
Emax [32]: 65%
Emax [33]: 65%
Emax [34]: 65%

CC[C@@H]1CN2CC[C@]3(Nc4cccc(OC)c4C3=O)[C@@H]2C[C@@H]1/C(=C\OC)C(=O)OC
EC50 [35]: 0.0017 µM
IC50 [35]: 0.00661 µM
EC50 [36]: 0.0017 µM
IC50 [36]: 0.0017 µM
EC50 [37]: 0.0017 µM
IC50 [37]: 0.000282 µM
EC50 [38]: 0.0017 µM
IC50 [38]: 0.00126 µM
EC50 [39]: 0.0017 µM
IC50 [39]: 0.132 µM
EC50 [40]: 0.0017 µM
IC50 [40]: 0.132 µM
Emax [41]: 82%
Emax [42]: 82%
Emax [43]: 82%
Emax [44]: 82%
Emax [45]: 82%

CC[C@@H]1CN2CC[C@]3(Nc4cccc(-c5ccccc5)c4C3=O)[C@@H]2C[C@@H]1/C(=C\OC)C(=O)OC
EC50 [35]: 0.0014 µM
EC50 [36]: 0.0014 µM
EC50 [37]: 0.0014 µM
EC50 [38]: 0.0014 µM
EC50 [39]: 0.0014 µM
EC50 [40]: 0.0014 µM
Emax [41]: 123%
Emax [42]: 123%
Emax [43]: 123%
Emax [44]: 123%
Emax [45]: 123%
